Data taken from paper PMC9784689, “Bioactivity Profiling of In Silico Predicted Linear Toxins from the Ants Myrmica rubra and Myrmica ruginodis” (Toxins, 2022).
No end group written: not given here.

Assays:
[1] = test system: Escherichia coli DE3 (BL21(DE3)); type: cell-based; settings: 20 µL per dilution from 48 h MIC experiments plated on TSA, n = 2
[2] = test system: Staphylococcus epidermidis (ATCC 35984; DSM 28319); type: cell-based; settings: 20 µL per dilution from 48 h MIC experiments plated on TSA, n = 2
[3] = test system: Micrococcus luteus (DSM 20030); type: cell-based; settings: 20 µL per dilution from 48 h MIC experiments plated on TSA, n = 2
[4] = test system: Listeria monocytogenes (DSM 20600); type: cell-based; settings: 20 µL per dilution from 48 h MIC experiments plated on TSA, n = 2
MDCK II cells = settings: MDCK II cells, 100 µM, 1% DMSO, 48 h, CellTiter-Glo luminescence, triplicate
[5] = test system: Escherichia coli DE3 (BL21(DE3)); settings: E. coli, 100 µM, after 48 h, MH II medium, 37 °C, OD600 normalized to untreated bacteria, triplicate
[6] = test system: Staphylococcus aureus (DSM 2569); settings: S. aureus, 100 µM, after 48 h, MH II medium, 37 °C, OD600 normalized to untreated bacteria, triplicate
[7] = test system: Staphylococcus epidermidis (ATCC 35984; DSM 28319); settings: S. epidermidis, 100 µM, after 48 h, MH II medium, 37 °C, OD600 normalized to untreated bacteria, triplicate
[8] = test system: Micrococcus luteus (DSM 20030); settings: M. luteus, 100 µM, after 48 h, MH II medium, 37 °C, OD600 normalized to untreated bacteria, triplicate
[9] = test system: Listeria monocytogenes (DSM 20600); settings: L. monocytogenes, 100 µM, after 48 h, MH II medium, 37 °C, OD600 normalized to untreated bacteria, triplicate
[10] = test system: Escherichia coli DE3 (BL21(DE3)); settings: at least 95% growth inhibition, nine log2 dilutions, triplicate, MH II, 48 h
Procedure: (§1) Cryo-conserved cultures (Table 3) were transferred with a sterile inoculation loop to tryptic soy agar (TSA) plates (Carl Roth) sealed with Parafilm (BEMIS, Neenah, WI, USA), and were incubated for 1–2 days at 37 °C depending on growth rates. Plates were then stored at 4 °C. For each of the three replicates, single colonies were picked with a sterile pipette tip, transferred into 2–3 mL Mueller-Hinton II (MH II) medium (BD, Heidelberg, Germany) and cultivated for ~24 h in unsealed 15 mL reaction tubes at 37 °C, shaking at 180 rpm. […] We measured the optical density at 600 nm (OD600) by transferring 1 mL of bacterial suspension to a polystyrene cuvette (SARSTED, Nümbrecht, Germany) in an Ultrospec 10 photometer (Biochrome, Cambridge, UK). […]
(§2) The experiments were carried out in 96-multiwell plates with a final volume of 100 µL per well (50 µL of bacterial suspension; 50 µL of testing peptide with a final concentration of 1.9% DMSO). […] The OD600 was measured after 0, 24, and 48 h using a BioTek Eon microplate reader and Gen5 v2.09. One experiment was carried out with automatic OD600 measurement every 20 min with a prior 30 s double orbital rotation at 237 rpm with overall incubation at 37 °C for 60 h in the microplate reader. […]

[11] = test system: Staphylococcus aureus (DSM 2569); settings: at least 95% growth inhibition, nine log2 dilutions, triplicate, MH II, 48 h
Procedure: as §1, §2

[12] = test system: Staphylococcus epidermidis (ATCC 35984; DSM 28319); settings: at least 95% growth inhibition, nine log2 dilutions, triplicate, MH II, 48 h
Procedure: as §1, §2

[13] = test system: Micrococcus luteus (DSM 20030); settings: at least 95% growth inhibition, nine log2 dilutions, triplicate, MH II, 48 h
Procedure: as §1, §2

Substance INPKLWLKLF-NH2 [U-MYRTX-Mrug5a] has an MBC [1] of 50 µM, an MBC [2] of 50 µM and an MBC [3] of 6.25 µM. The MBC [4] was 50 µM, the “Cytotoxicity (cell viability), in words” value (MDCK II cells) was “negligible cytotoxicity” and the Inhibition of growth [5] was 97%. The Inhibition of growth [6] was 96%, the Inhibition of growth [7] was 97% and the Inhibition of growth [8] was 89%. The Inhibition of growth [9] was 81%, the MIC [10] was 50 µM and the MIC [11] was 100 µM. For the same substance, the MIC [12] was 50 µM and the MIC [13] was 6.25 µM.
